According to patent US20230356105A1, “TETRAAZADODECANE BASED CHELATING AGENTS FOR SEPARATION OF RARE EARTH ELEMENTS AND METHOD THEREFOR” (Ustav Organicke Chemie a Biochemie AV CR V.V.I., priority 2020, published 2023):

How the values were obtained:
[1] = Removal of additive from remaining solution after precipitation by ultrafiltration (Example 25); type: physicochemical
[2] = Use of additives to improve separation of Nd/Dy mixture by precipitation with L5 (Example 18); type: physicochemical; conditions: 11 mM L5
Experimental: Stock solutions were pipetted into plastic 1×1 cm cuvettes to prepare reaction mixtures with concentrations as follows: • 1. […] 5 mM NdCl3 • 3. 5 mM DyCl3 • 4. 500 mM MOPS pH=7 • 5. the additive of interest, in a variable concentration; if possible, stock solutions were prepared from Na^+ salt forms of the compound; if not, the stock solutions were titrated by NaOH/HCl to pH=7 prior to addition (see Table 12 for additives and concentrations)
These aqueous reaction mixtures, each prepared to a total volume of 2.0 mL with the addition of water as necessary, were mixed by the use of a PTFE-coated stir bar on a magnetic stirrer. The cuvettes were sealed with transparent tape to prevent evaporation overnight. The reaction mixtures were stirred for 18 hours, at which point 500 μL aliquots of each reaction mixture were transferred into plastic 2 mL Eppendorf tubes and centrifuged. The supernatants were carefully pipetted out and transferred to a new set of tubes. The precipitate was dissolved by addition of 500 μL 1M HCl. The absolute concentration of Nd and Dy in each supernatant and precipitate was determined by ICP-OES.

Structure (SMILES) | Precipitate concentration [mM] Dy ([2]; additive 20 mM) [mM] | Precipitate concentration [mM] Nd ([2]; additive 20 mM) [mM] | Supernatant concentration [mM] Dy ([2]; additive 20 mM) [mM] | Supernatant concentration [mM] Nd ([2]; additive 20 mM) [mM] | % of initial [additive] in filtrate ([1]; initial [additive] 76 mM) [%] | Precipitate concentration [mM] Dy ([2]; additive 50 mM) [mM] | Precipitate concentration [mM] Nd ([2]; additive 50 mM) [mM] | Supernatant concentration [mM] Dy ([2]; additive 50 mM) [mM] | Supernatant concentration [mM] Nd ([2]; additive 50 mM) [mM] | Precipitate concentration [mM] Dy ([2]; additive 100 mM) [mM] | Precipitate concentration [mM] Nd ([2]; additive 100 mM) [mM] | Supernatant concentration [mM] Dy ([2]; additive 100 mM) [mM] | Supernatant concentration [mM] Nd ([2]; additive 100 mM) [mM] | Precipitate concentration [mM] Dy ([2]; additive 250 mM) [mM] | Precipitate concentration [mM] Nd ([2]; additive 250 mM) [mM] | Supernatant concentration [mM] Dy ([2]; additive 250 mM) [mM] | Supernatant concentration [mM] Nd ([2]; additive 250 mM) [mM] | also measured
CC(C)(O)C(=O)O [α-HIBA, alpha-hydroxyisobutyric acid] | 0.81 | 3.78 | 3.69 | 0.60 | – | – | – | – | – | – | – | – | – | – | – | – | – | % of initial [additive] in filtrate ([1]; initial [additive] 30.4 mM): 3%; Precipitate concentration [mM] Dy ([2]; additive 5 mM): 2.59 mM; Precipitate concentration [mM] Nd ([2]; additive 5 mM): 4.32 mM; Supernatant concentration [mM] Dy ([2]; additive 5 mM): 1.55 mM; Supernatant concentration [mM] Nd ([2]; additive 5 mM): 0.10 mM; Precipitate concentration [mM] Dy ([2]; additive 10 mM): 1.50 mM; Precipitate concentration [mM] Nd ([2]; additive 10 mM): 4.03 mM; Supernatant concentration [mM] Dy ([2]; additive 10 mM): 3.03 mM; Supernatant concentration [mM] Nd ([2]; additive 10 mM): 0.19 mM; Precipitate concentration [mM] Dy ([2]; additive 15 mM): 1.18 mM; Precipitate concentration [mM] Nd ([2]; additive 15 mM): 4.33 mM; Supernatant concentration [mM] Dy ([2]; additive 15 mM): 3.37 mM; Supernatant concentration [mM] Nd ([2]; additive 15 mM): 0.33 mM
O=C(O)c1ccccc1 [benzoic acid] | 3.83 | 4.94 | 1.09 | 0.13 | 43 | 1.81 | 4.66 | 2.69 | 0.10 | 0.97 | 4.60 | 4.03 | 0.49 | 0 | 0 | 5 | 5 | Precipitate concentration [mM] Dy ([2]; additive 150 mM): 0.68 mM; Precipitate concentration [mM] Nd ([2]; additive 150 mM): 3.96 mM; Supernatant concentration [mM] Dy ([2]; additive 150 mM): 4.34 mM; Supernatant concentration [mM] Nd ([2]; additive 150 mM): 1.03 mM; Precipitate concentration [mM] Dy ([2]; additive 200 mM): 0.53 mM; Precipitate concentration [mM] Nd ([2]; additive 200 mM): 1.65 mM; Supernatant concentration [mM] Dy ([2]; additive 200 mM): 4.20 mM; Supernatant concentration [mM] Nd ([2]; additive 200 mM): 2.89 mM
CC(=O)O [acetate] | – | – | – | – | 83 | 2.43 | 4.97 | 3.05 | 0.33 | 1.74 | 4.85 | 3.74 | 0.30 | 1.05 | 4.04 | 4.37 | 1.17 | Precipitate concentration [mM] Dy ([2]; additive 500 mM): 0.49 mM; Precipitate concentration [mM] Nd ([2]; additive 500 mM): 0.52 mM; Supernatant concentration [mM] Dy ([2]; additive 500 mM): 4.69 mM; Supernatant concentration [mM] Nd ([2]; additive 500 mM): 4.62 mM
